Measured values published in US10059703B2, “3-alkyl-5-fluoro-4-substituted-imino-3,4-dihydropyrimidin-2(1H)-one derivatives as fungicides” (Adama Makhteshim Ltd., priority 2012, dated 2018).
Like-named read-outs stand apart in the source and are kept apart here.

Assays:
[1] = tested on: Septoria tritici; assay: Fungicidal activity: leaf blotch of wheat, one-day protectant and three-day curative tests on wheat plants; format: in vivo; settings: Zymoseptoria tritici
Method: Example 16: Evaluation of Fungicidal Activity: Leaf Blotch of Wheat (Mycosphaerella graminicola; anamorph: Septoria tritici; Bayer code SEPTTR)
Wheat plants (variety Yuma) were grown from seed in a greenhouse in 50% mineral soil/50% soil-less Metro mix until the first leaf was fully emerged, with 7-10 seedlings per pot. These plants were inoculated with an aqueous spore suspension of Septoria tritici either prior to or after fungicide treatments. After inoculation the plants were kept in 100% relative humidity (one day in a dark dew chamber followed by two to three days in a lighted dew chamber) to permit spores to germinate and infect the leaf. The plants were then transferred to a greenhouse for disease to develop.
(§1) The following tables present the activity of typical compounds of the present disclosure when evaluated in these experiments. The effectiveness of the test compounds in controlling disease was determined by assessing the severity of disease on treated plants, then converting the severity to percent control based on the level of disease on untreated, inoculated plants.
as §1, with “table presents” for “tables present”

[2] = 24 h, One-Day Protectant (1 DP), 100 ppm, wheat plants (variety Yuma), read-out: SEPTTR 100 PPM 1 DP (% Disease Control rating)
[3] = 72 h, Three-Day Curative (3 DC), 100 ppm, wheat plants (variety Yuma), read-out: SEPTTR 100 PPM 3 DC (% Disease Control rating)

melting point [°C] | Compound | pest or weed control at 100 ppm [1, 2] [%] | pest or weed control at 100 ppm [1, 3] [%] | pest or weed control at 100 ppm ([1]; 24 h, read-out: SEPTTR 100 PPM 1 DP (% Disease Control rating)) [%] | pest or weed control at 100 ppm ([1]; 72 h, read-out: SEPTTR 100 PPM 3 DC (% Disease Control rating)) [%]
97 to 105 | C/N=c1\c(F)cn(S(=O)(=O)c2ccc(OC)cc2)c(=O)n1C [Compound F1, (E)-5-fluoro-1-((4-methoxyphenyl)sulfonyl)-3-methyl-4-(methylimino)-3,4-dihydropyrimidin-2(1H)-one] | 76 to 100 | 51 to 75 |  | 
142 to 144 | C/N=c1\c(F)cn(S(=O)(=O)c2ccccc2)c(=O)n1C [Compound F2] | 76 to 100 | 51 to 75 |  | 
117 to 123 | C/N=c1\c(F)cn(S(=O)(=O)c2ccc(C)cc2)c(=O)n1C [Compound F3] | 76 to 100 | 51 to 75 |  | 
136 to 138 | C/N=c1\c(F)cn(S(=O)(=O)c2cccs2)c(=O)n1C [Compound F4] | 76 to 100 | 76 to 100 |  | 
130 to 134 | C/N=c1\c(F)cn(S(=O)(=O)c2ccc(Cl)cc2)c(=O)n1C [Compound F5] | 76 to 100 | 76 to 100 |  | 
139.2 to 140 | C/N=c1\c(F)cn(S(=O)(=O)c2ccc(OC(F)(F)F)cc2)c(=O)n1C [Compound F6] | 76 to 100 | 76 to 100 |  | 
148.6 to 150.6 | C/N=c1\c(F)cn(S(=O)(=O)c2cccc(C#N)c2)c(=O)n1C [Compound F7] | 26 to 50 | 51 to 75 |  | 
204 to 205.4 | C/N=c1\c(F)cn(S(=O)(=O)c2ccccc2OC)c(=O)n1C [Compound F8] | 76 to 100 | 76 to 100 |  | 
157.1 to 158 | C/N=c1\c(F)cn(S(=O)(=O)c2cc(Cl)sc2Cl)c(=O)n1C [Compound F9] | 76 to 100 | 76 to 100 |  | 
149.4 to 151 | C/N=c1\c(F)cn(S(=O)(=O)c2ccc(C)c(Cl)c2)c(=O)n1C [Compound F10] | 76 to 100 | 51 to 75 |  | 
111.4 to 112 | C/N=c1\c(F)cn(S(=O)(=O)c2cccc(OC)c2)c(=O)n1C [Compound F12] | 76 to 100 | 76 to 100 |  | 
138.9 to 140.3 | C/N=c1\c(F)cn(S(=O)(=O)c2ccc(OC)c(F)c2)c(=O)n1C [Compound F13] | 76 to 100 | 76 to 100 |  | 
137.3 to 138.9 | C/N=c1\c(F)cn(S(=O)(=O)c2cccc(F)c2)c(=O)n1C [Compound F14] | 76 to 100 | 51 to 75 |  | 
123.7 to 125.8 | C/N=c1\c(F)cn(S(=O)(=O)c2cccc(C)c2)c(=O)n1C [Compound F16] | 26 to 50 | 0 to 25 |  | 
121.1 to 122.6 | C/N=c1\c(F)cn(S(=O)(=O)c2ccsc2)c(=O)n1C [Compound F17] | 76 to 100 | 76 to 100 |  | 
135 to 136.9 | C/N=c1\c(F)cn(S(=O)(=O)c2cc(Cl)cc(Cl)c2)c(=O)n1C [Compound F20] | 26 to 50 | 0 to 25 |  | 
109 to 112 | C/N=c1\c(F)cn(S(=O)(=O)c2ccc(F)cc2Cl)c(=O)n1C [Compound F21] |  |  |  | 
124 to 125 | COC(=O)/N=c1\c(F)cn(S(=O)(=O)c2ccc(OC)cc2)c(=O)n1C [Compound F27, methyl (5-fluoro-1-((4-methoxyphenyl)sulfonyl)-3-methyl-2-oxo-2,3-dihydropyrimidin-4(1H)-ylidene)carbamate] | 0 to 25 | 0 to 25 |  | 
134.6 to 136.2 | CC(=O)/N=c1\c(F)cn(S(=O)(=O)c2ccc(C)cc2)c(=O)n1C [Compound F29] | 76 to 100 | 76 to 100 |  | 
174 | CC(=O)/N=c1\c(F)cn(S(=O)(=O)c2ccccc2)c(=O)n1C [Compound F30] | 76 to 100 | 76 to 100 |  | 
158 | CCc1ccc(S(=O)(=O)n2cc(F)/c(=N\C(C)=O)n(C)c2=O)cc1 [Compound F32] | 76 to 100 | 76 to 100 |  | 
165 | CC(=O)/N=c1\c(F)cn(S(=O)(=O)c2ccc(C(C)C)cc2)c(=O)n1C [Compound F33] | 76 to 100 | 26 to 50 |  | 
164 | CC(=O)/N=c1\c(F)cn(S(=O)(=O)c2cccc(C)c2)c(=O)n1C [Compound F34] | 76 to 100 | 0 to 25 |  | 

The remaining lines, values behind:

Compound | melting point [°C] | pest or weed control at 100 ppm [1, 2] [%] | pest or weed control at 100 ppm [1, 3] [%] | pest or weed control at 100 ppm ([1]; 24 h, read-out: SEPTTR 100 PPM 1 DP (% Disease Control rating)) [%] | pest or weed control at 100 ppm ([1]; 72 h, read-out: SEPTTR 100 PPM 3 DC (% Disease Control rating)) [%]
C/N=c1\c(F)cn(S(=O)(=O)c2cc(OC)ccc2OC)c(=O)n1C [Compound F11] | 115 to 117.8 | 76 to 100 | 76 to 100 |  | 
C/N=c1\c(F)cn(S(=O)(=O)c2c(C)cc(C)cc2C)c(=O)n1C [Compound F15] | 175.7 to 177.6 | 26 to 50 | 26 to 50 |  | 
C/N=c1\c(F)cn(S(=O)(=O)c2cn(C)nc2C)c(=O)n1C [Compound F18] | 147 to 149 | 26 to 50 | 76 to 100 |  | 
C/N=c1\c(F)cn(S(=O)(=O)c2c(C)noc2C)c(=O)n1C [Compound F19] | 130.1 to 131.1 | 0 to 25 | 51 to 75 |  | 
C/N=c1\c(F)cn(S(=O)(=O)c2cc(C)c(Cl)cc2C)c(=O)n1C [Compound F22] |  | 76 to 100 | 76 to 100 |  | 
C/N=c1\c(F)cn(S(=O)(=O)c2sc(C)nc2C)c(=O)n1C [Compound F23] |  | 26 to 50 | 76 to 100 |  | 
COc1ccc(S(=O)(=O)n2cc(F)/c(=N\C(=O)Oc3ccccc3)n(C)c2=O)cc1 [Compound F24, phenyl (5-fluoro-1-((4-methoxyphenyl)sulfonyl)-3-methyl-2-oxo-2,3-dihydropyrimidin-4(1H)-ylidene)carbamate] | 190 to 193 |  |  | 0 to 25 | 0 to 25
Cc1ccc(S(=O)(=O)n2cc(F)/c(=N/C(=O)C(C)C)n(COC(=O)C(C)C)c2=O)cc1 [Compound F25, Z)-(5-fluoro-6-(isobutyrylimino)-2-oxo-3-tosyl-2,3-dihydropyrimidin-1(6H)-yl)methyl isobutyrate] |  | 0 to 25 | 76 to 100 |  | 
COc1ccc(S(=O)(=O)n2cc(F)/c(=N/C(C)=O)n(C)c2=O)cc1 [Compound F26] |  | 76 to 100 | 76 to 100 |  | 
C/N=c1\c(F)cn(S(=O)(=O)C2CC2)c(=O)n1C [Compound F28] | 102.2 to 104 | 0 to 25 | 51 to 75 |  | 
COc1ccc(S(=O)(=O)n2cc(F)/c(=N\C(C)=O)n(C)c2=O)cc1 [Compound F31, N-(5-fluoro-1-((4-methoxyphenyl)sulfonyl)-3-methyl-2-oxo-2,3-dihydropyrimidin-4(1H)-ylidene)acetamide] |  | 76 to 100 | 76 to 100 |  | 
CC(=O)/N=c1\c(F)cn(S(=O)(=O)c2cc(C)c(Cl)cc2C)c(=O)n1C [Compound F35] | 173 | 76 to 100 | 26 to 50 |  | 
CC(=O)/N=c1\c(F)cn(S(=O)(=O)c2cc(Cl)sc2Cl)c(=O)n1C [Compound F36] | 154 | 76 to 100 | 51 to 75 |  | 
[2H]C([2H])([2H])/N=c1\c(F)cn(S(=O)(=O)c2ccccc2)c(=O)n1C([2H])([2H])[2H] [Compound F61, 5-fluoro-1-(phenylsulfonyl)-3-trideuteriomethyl-4-(trideuteriomethylimino)-3,4-dihydropyrimidin-2(1H)-one] |  | 0 to 25 | 0 to 25 |  | 
[2H]C([2H])([2H])/N=c1\c(F)cn(S(=O)(=O)c2ccc(C)cc2)c(=O)n1C([2H])([2H])[2H] [Compound F62, 5-fluoro-1-((4-methylphenyl)sulfonyl)-3-trideuteriomethyl-4-(trideuteriomethylimino)-3,4-dihydropyrimidin-2(1H)-one] |  | 0 to 25 | 0 to 25 |  | 
[2H]C([2H])([2H])/N=c1\c(F)cn(S(=O)(=O)c2ccc(OC)cc2)c(=O)n1C([2H])([2H])[2H] [Compound F63, 5-fluoro-1-((4-methoxyphenyl)sulfonyl)-3-trideuteriomethyl-4-(trideuteriomethylimino)-3,4-dihydropyrimidin-2(1H)-one] |  | 0 to 25 | 0 to 25 |  | 
